According to patent US20250066290A1, “DHODH INHIBITORS CONTAINING A CARBOXYLIC ACID BIOISOSTERE” (IMMUNIC AG, priority 2021, published 2025):
In brackets after ≈: the same amount, converted by molar mass. Read-outs that look alike come from different tables or passages of the source.

What was measured:
[1] = tested on: Caco-2 monolayer; assay: A-B and B-A permeability (Caco-2, pH 7.4/7.4); assay type: in vitro ADME, human; conditions: Caco-2, pH 7.4
Excerpt: (§1) The Caco-2 cell line is a human colon adeno-carcinoma cell line that differentiates in culture and resembles the epithelial lining of the human small intestine. […]

[2] = pH 7.4
[3] = molecular target: human URAT1 uptake transporter (Homo sapiens (Human), UniProt Q96S37); assay: Human URAT1 uptake transporter assay (MDCKII-URAT1-LV, SOLVO); assay type: cell-based; conditions: 10 μM compound, 20 μM uric acid probe substrate
Protocol: In the human URAT1 uptake transporter assay (host cell line: MDCKII), the accumulation of the probe substrate in the presence of a DHODH inhibitor (at a concentration of 10 μM) into cells was measured. The assay was executed at SOLVO with catalogue number MDCKII-URAT1-LV. 20 μM uric acid served as probe substrate. Reference inhibitor was benzbromarone at a concentration of 300 μM, which served as internal control.

[4] = Partition coefficient log D (n-octanol/PBS at pH 7.4); assay type: physicochemical; conditions: pH 7.4
Protocol: The total amount of compound was determined as the peak area of the principal peak in a calibration standard (100 μM) containing organic solvent (MeOH/water, 60/40 v/v). The amount of compound in buffer was determined as the combined, volume-corrected and weighted areas of the corresponding peaks in the aqueous phases of three organic-aqueous samples of different composition. An automated weighting system was used to ensure the preferred use of raw data from those samples with well quantifiable peak signals. The amount of compound in organic was calculated by subtraction.
Subsequently, the partition coefficient (log D, n-octanol/PBS at pH 7.4) was calculated as the Log10 of the amount of compound in the organic phase divided by the amount of compound in the aqueous phase (Eurofins Discovery Services Item #417).

[5] = tested on: SARS-CoV-2; assay: SARS-CoV-2 viral replication (YFP) assay; assay type: cell-based; conditions: Severe acute respiratory syndrome coronavirus 2, read-out: EC50 range
[6] = Mouse pharmacokinetics, male and female, cassette dosing; assay type: in vivo, mice (C57BL/6J); conditions: for AUC / Cmax / half-life: C57BL/6J, mouse, in vivo; for AUC: 0 to 24 h; for Cmax: 5 mg/kg oral, 1 mg/kg intravenous cassette; for F: bioavailability
Protocol: The pharmacokinetics of the compounds of the present invention was evaluated in 3 male and 3 female mice (C57BL/6J, 8 week old) after oral or intravenous cassette dosing to assess the oral bioavailability. Dose was 5 mg/kg (oral) and 1 mg/kg (intravenous), application volume was 5 mL/kg (oral) and 0.5 mL/kg (intravenous), vehicle was 5% solutol, 95% NaCl solution (at 0.9% saline concentration) for oral and 5% solutol, 5% ethanol, 90% NaCl solution (at 0.9% saline concentration) for intravenous. At each designated time point (0.5, 1, 2, 4, 8 and 24 h after dosing), 20 μL whole blood were collected from the tail vein into Li-heparin tubes, frozen on dry ice within 1-2 minutes of sampling and stored at −20° C. until processed for LC-MS analysis.

[7] = molecular target: N-terminally truncated recombinant hDHODH enzyme (Homo sapiens, UniProt Q02127); assay: biochemical; assay type: biochemical; conditions: human DHODH assay; read-out: IC50 range
In short: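 DCIP reduction followed at 600 nm for 2 min, with 60 μM 2,6-dichloroindophenol, 50 μM decylubiquinone and 100 μM dihydroorotate (reaction started with dihydroorotate). Buffer 50 mM TrisHCl, 150 mM KCl, 0.1% Triton X-100, pH 8.0, 30° C. IC50 from at least six compound concentrations.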

[8] = tested on: SARS-CoV-2 d6-YFP; assay: Combinatorial drug assessment with EIDD-1931 by viral replication inhibition assay; assay type: cell-based
[9] = Kinetic aqueous solubility in PBS at pH 7.4; conditions: pH 7.4, aqueous buffer, kinetic from dmso stock
[10] = A-B and B-A permeability (Caco-2, pH 7.4/7.4); assay type: in vitro ADME, human; conditions: human; for recovery at 10 μM: Caco-2, Caco-2, 10 μM
Excerpt: as §1

[11] = Cytotoxicity in human rhinovirus test
[12] = tested on: human rhinovirus HRV-14; assay: Antiviral activity on human rhinovirus; assay type: cell-based; conditions: Rhinovirus B, HRV14
[13] = tested on: SARS-CoV-2 reporter virus d6-YFP (WT); assay: microbe, parasite or virus in culture; assay type: cell-based; conditions: Severe acute respiratory syndrome coronavirus 2, Caco-2
[14] = tested on: RSV-B; assay: Antiviral activity on RSV-B in Hep-2 cells; assay type: cell-based; conditions: human respiratory syncytial virus, 48 h, two days after infection
Excerpt: (§2) The following results were obtained:

[15] = tested on: RSV-Long; assay: Antiviral activity on RSV-Long in Hep-2 cells; assay type: cell-based; conditions: human respiratory syncytial virus, 48 h, two days after infection
Excerpt: as §2

[16] = tested on: RSV-A2; assay: Antiviral activity on RSV-A2 in Hep-2 cells; conditions: human respiratory syncytial virus, HEp-2, 48 h, read-out: RSV-A2 IC50
[17] = in vitro; assay type: cell-based; conditions: human
Excerpt: as §2

[18] = Metabolic stability in rat liver microsomes; conditions: SD
Excerpt: (§3) The metabolism was monitored by HPLC-MS/MS. Verapamil served as positive control.

[19] = Metabolic stability in human liver microsomes
Excerpt: as §3

[20] = Mouse pharmacokinetics, female, deuteration matched pair analysis; assay type: in vivo, mice (C57BL/6J)
Protocol: In another matched pair analysis the benefit of deuteration of the N-methoxyacetamide moiety was tested: the pharmacokinetic properties of the compounds were evaluated in 3 female mice (C57BL/6J, 8 week old) after oral or intravenous cassette dosing to assess the oral bioavailability. Dose was 5 mg/kg (oral) and 1 mg/kg (intravenous), application volume was 5 mL/kg (oral) and 2 mL/kg (intravenous), vehicle was 5% solutol, 95% NaCl solution (at 0.9% saline concentration) for oral and 5% solutol, 5% ethanol, 90% NaCl solution (at 0.9% saline concentration) for intravenous application. At each designated time point (0.25, 0.5, 1, 2, 4 and 8 h after dosing for oral; 0.083, 0.25, 0.5, 1, 4 and 8 h after dosing for intravenous), 20 μL whole blood were collected from the tail vein into Li-heparin tubes, frozen on dry ice within 1-2 minutes of sampling and stored at −20° C. until processed for LC-MS analysis.

[21] = in vitro
[22] = high vidofludimus doses; cited from earlier work

Chain of human URAT1 uptake transporter (Q96S37 whole entry): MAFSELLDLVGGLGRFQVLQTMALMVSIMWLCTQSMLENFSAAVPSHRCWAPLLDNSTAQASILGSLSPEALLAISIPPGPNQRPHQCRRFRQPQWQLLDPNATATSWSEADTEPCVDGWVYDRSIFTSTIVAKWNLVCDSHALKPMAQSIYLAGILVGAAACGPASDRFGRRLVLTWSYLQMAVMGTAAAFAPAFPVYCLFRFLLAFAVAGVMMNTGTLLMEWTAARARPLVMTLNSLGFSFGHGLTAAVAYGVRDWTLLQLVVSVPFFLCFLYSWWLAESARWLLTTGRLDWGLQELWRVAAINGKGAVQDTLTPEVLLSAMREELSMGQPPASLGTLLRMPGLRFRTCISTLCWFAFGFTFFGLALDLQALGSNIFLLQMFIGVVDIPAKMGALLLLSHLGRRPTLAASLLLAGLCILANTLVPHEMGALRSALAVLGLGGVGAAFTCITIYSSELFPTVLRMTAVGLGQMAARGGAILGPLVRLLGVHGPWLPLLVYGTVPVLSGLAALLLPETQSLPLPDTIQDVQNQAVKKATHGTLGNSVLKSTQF
Chain of N-terminally truncated recombinant hDHODH enzyme (Q02127 whole entry, looked up, the tested form may be a part): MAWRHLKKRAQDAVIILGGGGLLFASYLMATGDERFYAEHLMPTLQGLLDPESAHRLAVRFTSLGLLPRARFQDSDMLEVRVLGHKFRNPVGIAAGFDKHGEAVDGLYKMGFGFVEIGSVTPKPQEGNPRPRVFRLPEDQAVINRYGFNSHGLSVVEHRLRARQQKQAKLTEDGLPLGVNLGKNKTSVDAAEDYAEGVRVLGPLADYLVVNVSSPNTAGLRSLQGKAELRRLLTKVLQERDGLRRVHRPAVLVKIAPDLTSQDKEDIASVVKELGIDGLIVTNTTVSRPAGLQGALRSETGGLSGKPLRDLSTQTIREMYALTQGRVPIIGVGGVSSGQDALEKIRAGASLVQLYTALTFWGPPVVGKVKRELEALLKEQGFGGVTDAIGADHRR

Row | SMILES | human URAT1 uptake transporter stimulation @ 10 μM [3] | EC50 [5] | AUC ([6]; female mice) | Cmax ([6]; female mice) | AUC ([6]; male mice) | Cmax ([6]; male mice) | F ([6]; female mice) | half-life ([6]; female) | F ([6]; male mice) | half-life ([6]; male) | IC50 [7] | CC50 [11] | EC50 ([12]; HRV-14, read-out: EC50) | further results
1 | [2H]C([2H])([2H])Oc1cccc(-c2cc(F)c(NC(=O)C3=C(C(=O)NOC)CCC3)c(F)c2)c1 [Comparative Example C1, reference compound] | 173% |  |  |  |  |  |  |  |  |  |  |  |  | A-B permeability [1]: 0.068 ×10⁻⁶ cm/s; B-A permeability [1]: 0.88 ×10⁻⁶ cm/s; solubility [2]: 220 µM (≈ 89.2 µg/mL); logD [4]: 1.0
2 | CS(=O)(=O)NC(=O)C1=C(C(=O)Nc2c(F)c(F)c(-c3cccc(OC(F)(F)F)c3)c(F)c2F)CCC1 [Example 1, N^1-(Methylsulfonyl)-N^2-(2,3,5,6-tetrafluoro-3′-(trifluoromethoxy)-[1,1′-biphenyl]-4-yl)cyclopent-1-ene-1,2-dicarboxamide] | 28% | 10 to 25 µM | 7350 ng·h/mL | 1320 ng/mL | 3200 ng·h/mL | 754 ng/mL | ♀ 217% | 2.8 h | ♂ 49% | 2.9 h | < 0.1 µM |  |  | antiviral effect in combination with EIDD-1931 [8]: synergistic antiviral effect; antiviral effect in combination with EIDD-1931 ([8]; listed as Compound 1): synergistic antiviral effects; solubility [9]: 237 µM (≈ 128 µg/mL)
3 | [2H]C([2H])([2H])Oc1cccc(-c2cc(F)c(NC(=O)C3=C(C(=O)NOC)CCC3)c(F)c2)c1 [Example 4] | 26% | < 10 µM | 1210 ng·h/mL | 690 ng/mL | 1780 ng·h/mL | 1110 ng/mL | ♀ 87% | 1.3 h | ♂ 63% | 1.1 h |  | > 25 µM |  | recovery at 10 μM ([10]; A-B direction, read-out: recovery (A-B)): 60%; recovery at 10 μM ([10]; B-A direction, read-out: recovery (B-A)): 52%; Papp A→B at 10 μM ([10]; Caco-2, 10 μM, pH 7.4/7.4): 1.6 ×10⁻⁶ cm/s; Papp B→A at 10 μM ([10]; Caco-2, 10 μM, pH 7.4/7.4): 0.26 ×10⁻⁶ cm/s; EC50 [12]: 2.2 µM
4 | [2H]C([2H])([2H])Oc1cccc(-c2cc(F)c(NC(=O)c3ccsc3C(=O)NOC)c(F)c2)c1 [Example 9, N3-(3,5-Difluoro-3′-(methoxy-d3)-[1,1′-biphenyl]-4-yl)-N2-methoxythiophene-2,3-di-carboxamide] |  | < 1 µM |  |  |  |  |  |  |  |  | < 0.1 µM | > 25 µM | 0.014 µM | EC50 [13]: 0.072 µM; IC50 [14]: < 0.1 µM; IC50 [15]: < 0.1 µM; IC50 [16]: < 0.1 µM; CC50 at 2 days [17]: 45.3 µM; microsomal CLint ([18]; female): 63.8 µL/min/mg; microsomal CLint ([18]; male): 183 µL/min/mg; microsomal CLint ([19]; female): 55.5 µL/min/mg; microsomal CLint ([19]; male): 76.5 µL/min/mg; AUC(0-t) ([20]; C57BL/6J, mouse, in vivo, female mice, 0 to 8 h): 12300 ng·h/mL; Cmax ([20]; C57BL/6J, mouse, in vivo, female mice, 5 mg/kg oral, 1 mg/kg intravenous cassette): 3000 ng/mL; F ([20]; female mice, bioavailability): 49%; half-life ([20]; female, C57BL/6J, mouse, in vivo): 2.6 h
5 | CCOC(=O)c1ccc(OCCC2CCN(c3ccc(C)nn3)CC2)cc1 [pirodavir] |  |  |  |  |  |  |  |  |  |  |  |  | 0.0003 µM | CC50 [21]: 4.5 µM
6 | COc1cccc(-c2ccc(NC(=O)C3=C(C(=O)O)CCC3)c(F)c2)c1 [vidofludimus, 2-((3-fluoro-3′-methoxy-[1,1′-biphenyl]-4-yl)carbamoyl)cyclopent-1-ene-1-carboxylic acid] |  |  |  |  |  |  |  |  |  |  |  |  |  | blood uric acid levels [22]: decrease; urine red blood cell count [22]: increase
